Measurements: article PMC3914206
Several values for one entry are separate records, joined by “and”; a condition that tells them apart may be missing. Equal entries are not always repeated.

How the values were obtained:
panel of 442 kinases = target: T1, panel of 442 kinases (Homo sapiens, UniProt Q5S007); assay type: binding; details: Compound Concentration 10 µM
T1 construct: purchased KINOMEscan
Excerpt: We assessed the selectivity of members of this scaffold using the KINOMEscan methodology across a near comprehensive panel of 442 kinases [[18,27]].

[1] = target: T2, selected panels of kinases in HeLa and PC3 cell lysates (Homo sapiens, UniProt O14936); assay: KiNativ chemical proteomics profiling in HeLa and PC3 cell lysates; assay type: binding; details: 10 uM; proteome PC3; peptide ETGQQFAVkIVDVAK; labeling site Lys1
T2 construct: endogenous in cells; host or cells: HeLa and PC3 cell lysates

[2] = target: T3, selected panels of kinases in HeLa and PC3 cell lysates (Homo sapiens, UniProt P07332); assay: as above; assay type: binding; details: 10 uM; proteome HEL; peptide […]kSCR; labeling site Lys1
T3 construct: endogenous in cells; host or cells: HeLa and PC3 cell lysates

[3] = target: T4, selected panels of kinases in HeLa and PC3 cell lysates (Homo sapiens, UniProt Q00536); assay: as above; assay type: binding; details: 10 uM; PCTAIRE1; peptide LTDNLVALkEIR; proteome PC3; labeling site Lys1
T4 construct: endogenous in cells; host or cells: HeLa and PC3 cell lysates

[4] = target: T5, selected panels of kinases in HeLa and PC3 cell lysates (Homo sapiens, UniProt Q58A45); assay: as above; assay type: binding; details: 10 uM; PAN3; peptide VMDPTkILITGK; proteome HEL
T5 construct: endogenous in cells; host or cells: HeLa and PC3 cell lysates

[5] = target: T6, selected panels of kinases in HeLa and PC3 cell lysates (Homo sapiens, UniProt Q9NWZ3); assay: as above; assay type: binding; details: 10 uM, peptide DIk[…], labeling site Lys2
T6 construct: endogenous in cells; host or cells: HeLa and PC3 cell lysates
T6 sequence (Q9NWZ3 1-460): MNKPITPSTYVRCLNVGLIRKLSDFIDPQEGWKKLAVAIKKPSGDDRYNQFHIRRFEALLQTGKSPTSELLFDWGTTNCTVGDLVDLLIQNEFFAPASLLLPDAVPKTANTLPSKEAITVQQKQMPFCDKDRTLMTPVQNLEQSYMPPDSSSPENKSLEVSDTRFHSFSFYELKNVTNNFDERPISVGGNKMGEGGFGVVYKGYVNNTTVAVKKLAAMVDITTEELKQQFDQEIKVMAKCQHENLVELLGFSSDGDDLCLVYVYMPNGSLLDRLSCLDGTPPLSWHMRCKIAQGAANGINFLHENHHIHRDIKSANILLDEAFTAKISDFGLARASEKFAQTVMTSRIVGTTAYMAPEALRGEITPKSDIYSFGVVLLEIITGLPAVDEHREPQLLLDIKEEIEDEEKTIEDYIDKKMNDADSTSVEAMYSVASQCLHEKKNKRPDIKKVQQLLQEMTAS

ERK5 = ERK5 (Homo sapiens, UniProt Q13164); assay: ERK5 kinase activity in vitro assay (32P-ATP, PIMtide substrate); assay type: biochemical; design: hexahistidine (His6) (N); made in house; host or cells: Spodoptera frugiperda 21 cells (baculovirus, Bac-to-Bac); details: in vitro assay, recombinant active ERK5; read-out: Enzymatic IC50 (ERK5)
Method: pFastBAC vector encoding N-terminal hexahistidine-tagged human ERK5 and HA-tagged human MEK5-DD (constitutively active) were used to generate recombinant baculovirus using the Bac-to-Bac system (Invitrogen). […] His-tagged ERK5 was purified as described for His-tagged BRSK1[33], using 5 mL Ni-NTA-agarose resin (Qiagen) followed by gel filtration chromatography on Superdex 200HR column on an AKTA system (GE Healthcare).
Assays were carried out for 20 min at 30 °C, terminated by applying the reaction mixture onto p81 paper and the incorporated radioactivity measured as described previously.

endogenous LRRK2 = assay type: cell-based; details: EBV immortalized human lymphoblastoid cells, 90 min
[6] = Pharmacokinetics after intravenous and oral delivery in mice; assay type: in vivo
Method: The pharmacokinetic properties of 26 were also evaluated following intravenous and oral delivery in mice.

wild-type LRRK2 = wild-type LRRK2 (Homo sapiens, UniProt Q5S007); assay: LRRK2 cellular assay, Ser910/Ser935 phosphorylation in stably transfected HEK293 cells; details: up to 3 μM, 90 min
Method: (§1) Our cellular assay for LRRK2 measures the ability of compounds to inhibit LRRK2-dependent phosphorylation of Ser910 and Ser935 in stably transformed HEK293 cells as described previously [[21,25]].
(§2) As there are no validated direct phosphorylation substrates of LRRK2, we monitored phosphorylation of Ser910 and Ser935, two residues whose phosphorylation is known to be dependent upon LRRK2 kinase activity [25]
(§3) Cell culture, treatments and cell lysis. HEK293 was cultured in DMEM (Dulbecco's Modified Eagle's medium) supplemented with 10% FBS (fetal bovine serum), 2 mM glutamine and 1× penicillin/streptomycin solution. […] Following treatment, cells were washed once with phosphate buffered saline (PBS) buffer and lysed with lysis buffer (50 mM Tris/HCl, pH 7.5, 1 mM EGTA, 1 mM EDTA, 1 mM sodium orthovanadate, 10 mM sodium β-glycerophosphate, 50 mM NaF, 5 mM sodium pyrophosphate, 0.27 M sucrose, 1 mM benzamidine, 2 mM phenylmethanesulphonylfluoride (PMSF) and 1% Triton X-100). When not used immediately, all lysate supernatants were snap-frozen in liquid nitrogen and stored at −80 °C until use. Protein concentrations were determined following centrifugation of the lysate at 16,000× g at 4 °C for 20 min using the Bradford method with BSA as the standard. Transient transfection of HEK 293 cells was performed using the polyethyleneimine (PEI) method [35]. […]

LRRK2[A2016T] = LRRK2[A2016T] (Homo sapiens, UniProt Q5S007, A2016T); assay: as above; details: drug-resistant mutant, up to 3 μM
LRRK2[A2016T], sequence (Q5S007 whole entry A2016T): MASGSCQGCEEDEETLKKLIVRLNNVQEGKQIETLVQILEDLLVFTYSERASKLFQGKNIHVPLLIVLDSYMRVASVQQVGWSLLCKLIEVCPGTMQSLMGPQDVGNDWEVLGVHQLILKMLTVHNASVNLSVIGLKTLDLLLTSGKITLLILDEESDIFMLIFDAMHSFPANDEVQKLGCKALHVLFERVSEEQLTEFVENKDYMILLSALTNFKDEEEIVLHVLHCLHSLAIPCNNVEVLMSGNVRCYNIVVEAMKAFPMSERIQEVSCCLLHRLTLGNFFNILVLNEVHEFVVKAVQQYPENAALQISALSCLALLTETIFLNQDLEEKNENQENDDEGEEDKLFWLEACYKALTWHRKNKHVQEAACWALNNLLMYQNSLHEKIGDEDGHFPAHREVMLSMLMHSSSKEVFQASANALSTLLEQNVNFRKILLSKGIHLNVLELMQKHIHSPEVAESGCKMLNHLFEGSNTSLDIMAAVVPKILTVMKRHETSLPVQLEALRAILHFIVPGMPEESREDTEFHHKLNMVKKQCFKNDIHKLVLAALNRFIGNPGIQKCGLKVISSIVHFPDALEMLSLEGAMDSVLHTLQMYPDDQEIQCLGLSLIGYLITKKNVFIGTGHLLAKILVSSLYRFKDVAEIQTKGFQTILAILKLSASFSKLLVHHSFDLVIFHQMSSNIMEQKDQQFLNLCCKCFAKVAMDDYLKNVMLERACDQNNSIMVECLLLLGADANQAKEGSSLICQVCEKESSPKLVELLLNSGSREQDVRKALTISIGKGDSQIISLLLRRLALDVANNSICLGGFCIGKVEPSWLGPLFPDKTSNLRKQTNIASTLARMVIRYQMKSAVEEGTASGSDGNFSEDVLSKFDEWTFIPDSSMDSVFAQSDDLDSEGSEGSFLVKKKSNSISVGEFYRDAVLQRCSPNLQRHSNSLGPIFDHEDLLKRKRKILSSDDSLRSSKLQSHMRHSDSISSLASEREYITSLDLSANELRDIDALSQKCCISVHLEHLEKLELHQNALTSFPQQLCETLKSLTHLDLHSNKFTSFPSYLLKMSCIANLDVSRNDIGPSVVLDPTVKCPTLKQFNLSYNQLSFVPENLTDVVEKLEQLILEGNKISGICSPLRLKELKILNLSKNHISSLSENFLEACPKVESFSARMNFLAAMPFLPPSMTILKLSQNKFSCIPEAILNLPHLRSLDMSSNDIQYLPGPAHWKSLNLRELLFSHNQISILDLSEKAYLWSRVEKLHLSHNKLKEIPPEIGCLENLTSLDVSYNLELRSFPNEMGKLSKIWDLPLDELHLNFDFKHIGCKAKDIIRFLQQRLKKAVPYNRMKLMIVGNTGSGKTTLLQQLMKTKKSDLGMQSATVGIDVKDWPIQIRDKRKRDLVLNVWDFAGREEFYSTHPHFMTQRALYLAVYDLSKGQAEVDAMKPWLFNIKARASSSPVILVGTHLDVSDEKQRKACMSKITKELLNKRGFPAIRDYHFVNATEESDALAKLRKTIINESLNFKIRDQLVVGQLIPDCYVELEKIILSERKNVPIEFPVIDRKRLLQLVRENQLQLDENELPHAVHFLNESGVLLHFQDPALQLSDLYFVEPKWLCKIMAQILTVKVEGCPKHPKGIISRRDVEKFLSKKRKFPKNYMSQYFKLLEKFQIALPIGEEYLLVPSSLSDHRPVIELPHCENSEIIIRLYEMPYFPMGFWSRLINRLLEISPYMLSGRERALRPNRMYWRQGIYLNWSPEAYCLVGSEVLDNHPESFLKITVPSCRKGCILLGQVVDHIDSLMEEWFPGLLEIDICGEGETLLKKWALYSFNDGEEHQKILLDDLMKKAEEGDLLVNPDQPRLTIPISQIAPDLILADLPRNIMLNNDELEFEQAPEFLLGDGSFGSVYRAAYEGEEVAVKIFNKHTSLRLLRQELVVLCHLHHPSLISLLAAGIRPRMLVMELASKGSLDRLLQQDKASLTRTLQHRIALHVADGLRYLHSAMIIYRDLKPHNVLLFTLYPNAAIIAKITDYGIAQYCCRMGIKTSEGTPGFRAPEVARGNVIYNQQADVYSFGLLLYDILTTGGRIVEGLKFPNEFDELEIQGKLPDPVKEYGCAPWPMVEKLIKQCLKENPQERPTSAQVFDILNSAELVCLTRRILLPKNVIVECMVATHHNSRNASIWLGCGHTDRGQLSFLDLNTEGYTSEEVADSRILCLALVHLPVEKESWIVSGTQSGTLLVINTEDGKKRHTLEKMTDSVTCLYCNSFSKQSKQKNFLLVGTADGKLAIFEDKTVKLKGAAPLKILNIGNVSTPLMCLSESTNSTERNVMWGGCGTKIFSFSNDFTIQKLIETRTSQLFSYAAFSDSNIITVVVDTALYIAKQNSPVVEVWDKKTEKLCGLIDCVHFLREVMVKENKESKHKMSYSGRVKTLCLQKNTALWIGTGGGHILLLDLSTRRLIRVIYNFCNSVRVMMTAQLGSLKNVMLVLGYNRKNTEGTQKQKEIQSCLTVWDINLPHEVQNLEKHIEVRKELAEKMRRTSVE
Method: as §1, §2, §3

T1 sequence (Q5S007 whole entry): as the sequence (Q5S007 whole entry A2016T) above, with T2016A counted along it
T2 sequence (O14936 whole entry): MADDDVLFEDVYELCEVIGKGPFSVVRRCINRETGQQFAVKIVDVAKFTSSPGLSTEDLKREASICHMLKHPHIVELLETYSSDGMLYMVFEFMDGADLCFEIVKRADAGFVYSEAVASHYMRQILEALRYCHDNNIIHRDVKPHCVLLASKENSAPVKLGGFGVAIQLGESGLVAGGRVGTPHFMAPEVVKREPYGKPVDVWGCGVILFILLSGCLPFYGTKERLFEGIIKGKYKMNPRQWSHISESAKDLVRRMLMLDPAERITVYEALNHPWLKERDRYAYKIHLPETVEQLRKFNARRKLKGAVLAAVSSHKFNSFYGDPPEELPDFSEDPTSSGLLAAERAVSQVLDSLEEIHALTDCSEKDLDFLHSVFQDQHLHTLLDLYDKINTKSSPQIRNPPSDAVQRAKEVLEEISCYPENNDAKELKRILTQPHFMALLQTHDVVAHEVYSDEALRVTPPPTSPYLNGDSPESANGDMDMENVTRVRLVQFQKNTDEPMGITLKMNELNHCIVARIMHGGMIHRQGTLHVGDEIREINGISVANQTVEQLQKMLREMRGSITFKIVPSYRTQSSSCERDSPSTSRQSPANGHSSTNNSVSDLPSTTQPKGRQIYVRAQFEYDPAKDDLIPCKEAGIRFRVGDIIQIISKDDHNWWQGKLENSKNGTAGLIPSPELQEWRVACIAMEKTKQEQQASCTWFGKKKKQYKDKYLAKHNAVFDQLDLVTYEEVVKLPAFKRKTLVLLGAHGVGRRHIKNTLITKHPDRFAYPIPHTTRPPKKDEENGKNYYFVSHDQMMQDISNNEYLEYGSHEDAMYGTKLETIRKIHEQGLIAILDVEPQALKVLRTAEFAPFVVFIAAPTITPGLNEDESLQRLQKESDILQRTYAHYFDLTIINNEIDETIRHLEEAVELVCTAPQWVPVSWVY
T3 sequence (P07332 whole entry): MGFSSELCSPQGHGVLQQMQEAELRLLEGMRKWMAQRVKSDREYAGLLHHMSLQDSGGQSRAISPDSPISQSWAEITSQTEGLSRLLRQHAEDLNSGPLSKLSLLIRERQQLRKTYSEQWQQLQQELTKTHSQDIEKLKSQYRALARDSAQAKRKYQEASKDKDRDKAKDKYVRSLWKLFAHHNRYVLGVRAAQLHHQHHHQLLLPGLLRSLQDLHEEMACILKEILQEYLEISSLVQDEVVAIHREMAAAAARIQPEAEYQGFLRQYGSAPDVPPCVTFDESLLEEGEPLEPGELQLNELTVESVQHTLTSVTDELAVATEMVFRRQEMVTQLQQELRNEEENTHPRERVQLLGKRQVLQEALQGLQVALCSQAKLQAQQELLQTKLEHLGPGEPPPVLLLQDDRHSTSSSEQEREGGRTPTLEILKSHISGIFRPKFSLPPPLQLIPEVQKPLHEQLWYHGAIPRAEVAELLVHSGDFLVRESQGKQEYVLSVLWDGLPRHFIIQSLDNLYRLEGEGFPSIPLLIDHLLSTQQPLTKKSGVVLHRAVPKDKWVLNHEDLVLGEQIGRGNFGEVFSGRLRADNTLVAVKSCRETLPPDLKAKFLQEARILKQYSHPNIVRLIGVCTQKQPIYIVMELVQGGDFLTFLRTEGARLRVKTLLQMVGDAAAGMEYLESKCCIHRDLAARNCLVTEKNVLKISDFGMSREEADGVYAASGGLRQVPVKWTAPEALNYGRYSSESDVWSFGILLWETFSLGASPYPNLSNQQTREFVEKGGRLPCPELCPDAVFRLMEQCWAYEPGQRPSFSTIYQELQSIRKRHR
T4 sequence (Q00536 whole entry): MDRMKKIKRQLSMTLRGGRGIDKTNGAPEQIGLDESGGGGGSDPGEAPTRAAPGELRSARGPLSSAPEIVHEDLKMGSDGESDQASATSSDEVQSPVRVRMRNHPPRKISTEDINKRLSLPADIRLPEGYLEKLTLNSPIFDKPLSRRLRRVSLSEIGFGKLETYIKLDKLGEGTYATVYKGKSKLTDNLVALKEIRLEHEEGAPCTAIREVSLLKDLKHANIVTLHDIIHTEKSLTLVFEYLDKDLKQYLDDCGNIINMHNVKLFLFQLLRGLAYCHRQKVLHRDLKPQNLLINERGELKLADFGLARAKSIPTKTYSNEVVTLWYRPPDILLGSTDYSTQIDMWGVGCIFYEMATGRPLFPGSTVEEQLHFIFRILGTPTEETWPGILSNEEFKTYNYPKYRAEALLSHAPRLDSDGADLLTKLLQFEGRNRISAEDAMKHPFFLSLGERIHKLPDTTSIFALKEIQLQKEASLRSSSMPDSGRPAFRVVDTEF
wild-type LRRK2, sequence (Q5S007 whole entry): as the sequence (Q5S007 whole entry A2016T) above, with T2016A counted along it

SMILES	KINOMEscan: LRRK2 (panel of 442 kinases)	% Inhibiton, CASK [1] [%]	% Inhibiton, FES [2] [%]	% Inhibition PCTAIRE1 [3] [%]	% Inhibition PAN3 [4] [%]	% Inhibiton, IRAK4 ([5]; proteome HEL) [%]	% Inhibiton, IRAK4 ([5]; proteome PC3) [%]	IC50 (ERK5) [nM]	effect on phosphorylation of endogenous LRRK2 at Ser910 and Ser935 (endogenous LRRK2)	AUC0−∞ ([6]; IV, 1 mg/kg) [ng·h/mL]	CL ([6]; IV, 1 mg/kg) [mL/min/kg]	Cmax ([6]; IV, 1 mg/kg) [ng/mL]	T1/2 ([6]; IV, 1 mg/kg) [h]	Vss ([6]; IV, 1 mg/kg) [L/kg]	AUC0−∞ ([6]; PO, 10 mg/kg)	Cmax ([6]; PO, 10 mg/kg) [ng/mL]	F (oral bioavailability) ([6]; PO, 10 mg/kg) [%]	Tmax ([6]; PO, 10 mg/kg) [H]	inhibitory effect against LRRK2 in cells (Ser910/Ser935 phosphorylation) (wild-type LRRK2)	effect on phosphorylation of Ser910 and Ser935 (LRRK2[A2016T])
COc1cc(C(=O)N2CCC(N3CCN(C)CC3)CC2)ccc1Nc1ncc2c(n1)N(C1CCCC1)c1ccccc1C(=O)N2C [Compound 25, 11-cyclopentyl-2-((2-methoxy-4-(4-(4-methylpiperazin-1-yl)piperidine-1-carbonyl)phenyl)amino)-5-methyl-5H-benzo[e]pyrimido[5,4-b][1,4]diazepin-6(11H)-one]	28	-0.2	6.0	-25.8	-1.7	13.4	-7.4	82 ± 9	–	–	–	–	–	–	–	–	–	–	–	–
CCOc1cc(C(=O)N2CCC(N3CCN(C)CC3)CC2)ccc1Nc1ncc2c(n1)N(C1CCCC1)c1ccccc1C(=O)N2C [Compound 26]	–	-36.1	4.1	-26.9	-17.8	-2.3	1.4	–	did not show inhibitory effects	1743.83	8.64	439	8.2	4.67	15745 ng·h/mL and 15745.48 ng·h/mL	1142.77	90	4.0	did not show any inhibitory effect	–
COc1cc(C(=O)N2CCC(N3CCN(C)CC3)CC2)ccc1Nc1ncc2c(n1)N1CCc3cccc(c31)C(=O)N2C [Compound 24]	–	–	–	–	–	–	–	199 ± 12	–	–	–	–	–	–	–	–	–	–	–	no effect
COc1cc(C(=O)N2CCC(N3CCN(C)CC3)CC2)ccc1Nc1ncc2c(n1)N(C)c1ccccc1C(=O)N2C [15 (LRRK2-IN-1)]	0	–	–	–	–	–	–	–	–	–	–	–	–	–	–	–	–	–	–	–
